Source: US20050208058A1, “Compositions and methods for modulating cell division” (priority 2003, published 2005)
d = 2'-deoxy (DNA)

Key:
Type in all cases: cell-based, human
RPE cells [1] = assay: BrDU incorporation after siRNA treatment and nocodazole synchronization; settings: relative to control cells (siRNA to lamin), after nocodazole release; FIG. 2A
Protocol: (§1) To further study the effects of silencing centrosomal genes, the following cell cycle experiments were performed using RPE cells. In immunofluorescence experiments, cells were delivered by OLIGOFECTAMINE in a media solution containing between 1-100 nanomolar concentration of siRNAs. After 4 hours of incubation with lipofectamine, cells were washed, and cell cycle progression was assayed by (i) treating cells with 5-Bromo-2′-deoxyuridine (BrDU from Sigma, St Louis, Mo.) for 24 hours and staining for BrDU or (ii) staining cells with antibody to Ki-67 (BD Biosciences) according to manufacturer's instructions. BrDU treatment and staining were performed as follows: after 50-70 hours incubation with siRNA, BrDU was added to cells at a final concentration of 5 μg/ml. Cells were fixed in −20° C. methanol and then treated with 2N HCL at 22° C. for 30 minutes, incubated with 1:500 mouse anti-BrdU antibody (Becton Dickinson, Palo Alto, Calif.), and labeled with 1:1,000 goat FITC-mouse antibody (Molecular Probes, Inc.). Cells were also treated with 4′,6-diamidino-2-phenylindole (DAPI) (Molecular Probes) according to the manufacturer's instructions. Cells were prepared, imaged, and the resulting images were deconvolved as described in Example 1.
Upon release from nocodazole treatment, proliferating cells typically resume cell cycle progression. Chromosomal DNA in the cells was imaged using DAPI (faint ghost-like staining) and/or BrDU (brighter staining). Although DAPI can be used to visualize DNA at any stage of the cell cycle, BrDU is only incorporated into newly synthesized DNA only during S-phase. Thus, BrDU incorporation can be used as a marker of cells that progress through at least one S-phase of the cell cycle. Control cells in this experiment were treated with siRNA to lamin.

RPE cells [2] = assay: BrDU staining of cells treated in tandem with two siRNAs (p53 dependence); settings: FIG. 6B
Protocol: as §1
(§2) A number of experiments were conducted to determine if p53 is required for the cell cycle arrest phenotype described herein. FACS analysis of tandem siRNA-treated cells was performed as described in Example 2. BrDU and DAPI imaging was performed as described in Example 2. Intracellular p53 was visualized using anti-p53 antibody that is specific for activated p53 (i.e., p53 phosphorylated at Serine 33) (“α-Pser33-p53” provided by Yoichi Taya and described in Kishis et al., J. Biol. Chem., 276:39115-3922, 2001)

CDK2 = CDK2 kinase assay from siRNA-treated cells; settings: after sustained siRNA treatment, vs siRNA to laminin; FIG. 2C
Protocol: Kinase assays were done on RPE cells treated with siRNAs as described above. Treated cells were lysed in 1% NP-40 lysis buffer (NP-40 buffer: 20 mM NaPO4 pH 7.4, 1% NP-40, 250 mM NaCl, 5 mM ethylenediaminetetraacetic acid (EDTA), 5 mM dithiothreitol (DTT), 1 mM phenylmethylsulfonyl fluoride, 2 μg/ml leupeptin, and 1.5 μg/ml aprotinin) supplemented with 25 mM-glycerophosphate. For measurement of CDK2-associated activity in vitro, the complexes were immunoprecipitated for 2 hours at 4° C. using anti-cylin A antibody (Santa Cruz Biotechnology). Immunocomplexes were bound to protein A-Sepharose beads for an additional hour at 4° C. and washed four times with lysis buffer followed by one wash with the kinase buffer (20 mM Tris-HCl pH 7.5, 50 mM KCl, 7.5 mM MgCl 2, 1 mM DTT, 25 mM-glycerophosphate, 1 mM phenylmethylsulfonyl fluoride, 2 μg/ml leupeptin, and 1.5 μg/ml aprotinin). […] Phosphorylated proteins were analyzed on 10% SDS-polyacrylamide gels followed by autoradiography and quantified by phosphorimaging (Molecular Imager GS-250; Bio-Rad, Hercules, Calif.).
FIG. 2C is a graph quantifying the results of CDK2 kinase assays from cells treated with siRNA directed to laminin or pericentrin B. CDK2 activity is required for proliferating cells through to progress through the G1 stage of the cell cycle.

p53 = assay: Western blot of p53 in cytoplasmic and nuclear fractions; settings: relative to mock or silamin transfected cells; FIG. 6D
Text: The Western blot shown cytoplasmic (cyt), and nuclear (nuc) cell fractions blotted with an antibody to p53 (from Callbiochem, San Diego, Calif.). Nuclear fractions were blotted with an antibody for H1 as a control for loading.

RPE cells [3] = assay: FACS of cells treated in tandem with two siRNAs (p53 dependence); settings: tandem treatment sip53 then siGCP2; FIG. 6A
Protocol: For flow cytometry (i.e., fluorescence-activated cell sorter or FACS) experiments, siRNAs were delivered to cells as described above, and were incubated for 50-70 hours. To synchronize cells, nocodazole was added to the cells to a concentration of 5 μg/mL for 12 hours. Cells were stained with propidium iodide and analyzed by flow cytometry (FACSCAN; Becton Dickinson) using FLOJO® software (Tree Star, Inc., Ashland, Oreg.).
as §2
In FIG. 6A each line tracing represents FACS data from cells treated in tandem with the siRNAs directed to the gene products indicated above the line. Cells were first treated with siRNA directed to the gene product to the left of the slash. Up to 24 hours later, siRNA directed to the gene product to the right of the slash was added. […] 12 hours before collecting the cells, nocodazole was added to the cells analyzed in the bottom three line tracings. […]

Sequence	incorporation of BrDU into chromosomal material (RPE cells [1])	cells incorporating BrDU (RPE cells [2]; tandem treatment silaminin then indicated siRNA, vs silamin/silamin)	CDK2 expression and/or activity (CDK2)	nuclear p53 (Western blot) (p53)	effect of pre-treatment on siGCP2-mediated block of the nocodazole shift (RPE cells [3])	effect of pretreatment on number of cells that divided after sipericentrin or siGCP2 (RPE cells [2]; sip53 pretreatment, 6C)
UUGGAACAGCUGCAGCAGA (siRNA; RNA, 3' dTdT, backbone not given here) [pericentrin B, siRNA directed only to pericentrin B (Kendrin)]	clearly inhibited incorporation of BrDU	substantially fewer	greatly diminished	–	–	–
GGACAAGGGUUGGGCUGGG (siRNA; RNA, 3' dTdT, backbone not given here) [sip53, siRNA directed to p53, reference compound]	–	–	–	nuclear p53 is activated	inhibited the siGCP-mediated block of the nocodazole shift	increased the number of cells that divided
